Consider six compounds from patent EP0908457B1, “3-(1,2-benzisothiazol- and isoxazol-5-Y1)-2,4(1H,3H)-pyrimidinedione or thione and 3-(1,2-benzisothiazol- and isoxazol-5-y1)-4(3H)-pyrimidinone or thione herbicidal agents” (BASF AKTIENGESELLSCHAFT, priority 1997, dated 1999).

In one series the test system is Cyperus iria. Nature of the series: Preemergence weed control under flooded paddy conditions, CYPIR (Rice Flatsedge). For herbicidal effect rating, CYPIR: meaning of each grade not given here. The settings on record: flooded paddy, rated three to four weeks after treatment; for herbicidal effect rating, CYPIR: preemergence weeds; for CYPIR herbicidal effect rating / CYPIR herbicidal rating: preemergence. In kind it is in vivo.
The next series concerns Sagittaria pygmaea, L. Nature of the series: Preemergence weed control under flooded paddy conditions, SAGPY (Arrowhead (Pygmaea)). For herbicidal effect rating, SAGPY: meaning of each grade not given here. In kind it is in vivo. The settings on record: flooded paddy, rated three to four weeks after treatment; for herbicidal effect rating, SAGPY: preemergence weeds; for SAGPY herbicidal effect rating / SAGPY herbicidal rating: preemergence.
Series [1] deals with Monochoria vaginalis, Presl. Nature of the series: Preemergence weed control under flooded paddy conditions, MOOVA (Monochoria). For herbicidal effect rating, MOOVA: meaning of each grade not given here. In kind it is in vivo. Conditions: flooded paddy, rated three to four weeks after treatment; for herbicidal effect rating, MOOVA: preemergence weeds; for MOOVA herbicidal effect rating / MOOVA herbicidal rating: preemergence.
The test system of series [2] is Oryza sativa, (L.) Tebonnet. Description: Rice tolerance to post-transplant applications under flooded paddy conditions (Example 187), ORYSAT (Rice, Tebonnet). The settings on record: rated three to four weeks after treatment.
The subject of series [3] is Echinochloa oryzoides (Ard.) Fritsch. Description: Preemergence weed control under flooded paddy conditions, ECHORC (Watergrass (Calif.)). For herbicidal effect rating, ECHORC: meaning of each grade not given here. In kind it is in vivo. The settings on record: flooded paddy, rated three to four weeks after treatment; for herbicidal effect rating, ECHORC: preemergence weeds; for ECHORC herbicidal effect rating / ECHORC herbicidal rating: preemergence.

`Cn1c(C(F)(F)F)cc(=O)n(-c2ccc3snc(CSCC(=O)NS(C)(=O)=O)c3c2)c1=O` [Example 297, Acetamide, 2-{{{5-[3,6-dihydro-3-methyl-2,6-dioxo-4-(trifluoromethyl)-1(2H)-pyrimidinyl]-1,2-benzisothiazol-3-yl}methyl}thio}-N-(methylsulfonyl)-]: the “herbicidal effect rating, CYPIR” value in the series with Cyperus iria (Rate 0.0320 kg/ha) was 4.0; with Cyperus iria (Rate 0.0620 kg/ha), 5.0; in the series on Cyperus iria (Rate 0.1250 kg/ha), 7.0; with Cyperus iria (Rate 0.2500 kg/ha), 9.0. The “herbicidal effect rating, SAGPY” value turned out to be 0.0 in the series with Sagittaria pygmaea, L. (Rate 0.0320 kg/ha); 0.0 in the series with Sagittaria pygmaea, L. (Rate 0.0620 kg/ha); 3.0 in the series with Sagittaria pygmaea, L. (Rate 0.1250 kg/ha); 9.0 with Sagittaria pygmaea, L. (Rate 0.2500 kg/ha). The “herbicidal effect rating, MOOVA” value in series [1] (Rate 0.0320 kg/ha), in series [1] (Rate 0.0620 kg/ha), in series [1] (Rate 0.1250 kg/ha) and in series [1] (Rate 0.2500 kg/ha) was 9.0 each time. The “herbicidal effect rating ORYSAT” value in series [2] (Rate 0.0320 kg/ha) is on record as 0.0; in series [2] (Rate 0.0620 kg/ha), 0.0; in series [2] (Rate 0.1250 kg/ha), 0.0; in series [2] (Rate 0.2500 kg/ha) it was 2.0. The “herbicidal effect rating, ECHORC” value was found to be 0.0 in series [3] (Rate 0.0320 kg/ha), 0.0 in series [3] (Rate 0.0620 kg/ha), 3.0 in series [3] (Rate 0.1250 kg/ha) and 4.0 in series [3] (Rate 0.2500 kg/ha).
Take `Cn1c(C(F)(F)F)cc(=O)n(-c2ccc3snc(COCC(=O)NS(C)(=O)=O)c3c2)c1=O` [Example 294, Acetamide, 2-{{5-[3,6-dihydro-3-methyl-2,6-dioxo-4-(trifluoromethyl)-1(2H)-pyrimidinyl]-1,2-benzisothiazol-3-yl}methoxy}-N-(methylsulfonyl)-]: the “CYPIR herbicidal effect rating” value in the series on Cyperus iria (Rate 0.0320 kg/ha) was 0.0; in the series on Cyperus iria (Rate 0.0620 kg/ha), 0.0; in the series on Cyperus iria (Rate 0.1250 kg/ha), 3.0; with Cyperus iria (Rate 0.2500 kg/ha) it was 9.0. The “SAGPY herbicidal effect rating” value in the series on Sagittaria pygmaea, L. (Rate 0.0320 kg/ha) is given as 0.0; in the series with Sagittaria pygmaea, L. (Rate 0.0620 kg/ha), 0.0; in the series with Sagittaria pygmaea, L. (Rate 0.1250 kg/ha), 0.0; with Sagittaria pygmaea, L. (Rate 0.2500 kg/ha) it was 0.0. The “MOOVA herbicidal effect rating” value in series [1] (Rate 0.0320 kg/ha), in series [1] (Rate 0.0620 kg/ha), in series [1] (Rate 0.1250 kg/ha) and in series [1] (Rate 0.2500 kg/ha) was 9.0 in each case. Further, the “ORYSAT herbicidal effect rating” value in series [2] (Rate 0.0320 kg/ha), in series [2] (Rate 0.0620 kg/ha), in series [2] (Rate 0.1250 kg/ha) and in series [2] (Rate 0.2500 kg/ha) was 0.0 throughout. Also, the “ECHORC herbicidal effect rating” value in series [3] (Rate 0.0320 kg/ha), in series [3] (Rate 0.0620 kg/ha), in series [3] (Rate 0.1250 kg/ha) and in series [3] (Rate 0.2500 kg/ha) was 0.0 in each case.
Take `Cn1c(C(F)(F)F)cc(=O)n(-c2ccc3snc(/C=C/C=O)c3c2)c1=O` [Example 291, 1,2-Benzisothiazole-3-acrylaldehyde, 5-[3,6-dihydro-3-methyl-2,6-dioxo-4-(trifluoromethyl)-1(2H)-pyrimidinyl]-, (E)-]: the “CYPIR herbicidal effect rating” value in the series on Cyperus iria (Rate 0.0320 kg/ha) was found to be 0.0; with Cyperus iria (Rate 0.0620 kg/ha) it was 0.0; in the series with Cyperus iria (Rate 0.1250 kg/ha) it was 9.0; in the series with Cyperus iria (Rate 0.2500 kg/ha) it was 9.0. Further, the “SAGPY herbicidal effect rating” value in the series on Sagittaria pygmaea, L. (Rate 0.0320 kg/ha) came to 0.0; with Sagittaria pygmaea, L. (Rate 0.0620 kg/ha), 0.0; with Sagittaria pygmaea, L. (Rate 0.1250 kg/ha), 0.0; in the series with Sagittaria pygmaea, L. (Rate 0.2500 kg/ha), 0.0. The “MOOVA herbicidal effect rating” value was 0.0 in series [1] (Rate 0.0320 kg/ha), 9.0 in series [1] (Rate 0.0620 kg/ha), 9.0 in series [1] (Rate 0.1250 kg/ha) and 9.0 in series [1] (Rate 0.2500 kg/ha). Besides, the “ORYSAT herbicidal effect rating” value in series [2] (Rate 0.0320 kg/ha), in series [2] (Rate 0.0620 kg/ha), in series [2] (Rate 0.1250 kg/ha) and in series [2] (Rate 0.2500 kg/ha) was 0.0 each time. The “ECHORC herbicidal effect rating” value in series [3] (Rate 0.0320 kg/ha), in series [3] (Rate 0.0620 kg/ha), in series [3] (Rate 0.1250 kg/ha) and in series [3] (Rate 0.2500 kg/ha) was 0.0 each time.
On to `CNC.Cn1c(C(F)(F)F)cc(=O)n(-c2ccc3snc(CSCC(=O)O)c3c2)c1=O` [Example 299, Acetic acid, {{{5-[3,6-dihydro-3-methyl-2,6-dioxo-4-(trifluoromethyl)-1(2H)-pyrimidinyl)-1,2-benzisothiazol-3-yl}methyl}thio}-, dimethylamine salt], for which the “herbicidal effect rating, CYPIR” value was found to be 3.0 in the series on Cyperus iria (Rate 0.0320 kg/ha), 7.0 with Cyperus iria (Rate 0.0620 kg/ha), 9.0 in the series on Cyperus iria (Rate 0.1250 kg/ha) and 9.0 in the series with Cyperus iria (Rate 0.2500 kg/ha). Also, the “herbicidal effect rating, SAGPY” value with Sagittaria pygmaea, L. (Rate 0.0320 kg/ha) was 0.0; with Sagittaria pygmaea, L. (Rate 0.0620 kg/ha) it was 0.0; with Sagittaria pygmaea, L. (Rate 0.1250 kg/ha) it was 3.0; with Sagittaria pygmaea, L. (Rate 0.2500 kg/ha), 7.0. Also, the “herbicidal effect rating, MOOVA” value in series [1] (Rate 0.0320 kg/ha) is 7.0; in series [1] (Rate 0.0620 kg/ha) it was 9.0; in series [1] (Rate 0.1250 kg/ha), 9.0; in series [1] (Rate 0.2500 kg/ha) it was 9.0. Besides, the “herbicidal effect rating ORYSAT” value is 0.0 in series [2] (Rate 0.0320 kg/ha), 0.0 in series [2] (Rate 0.0620 kg/ha), 3.0 in series [2] (Rate 0.1250 kg/ha) and 5.0 in series [2] (Rate 0.2500 kg/ha). Moreover, the “herbicidal effect rating, ECHORC” value in series [3] (Rate 0.0320 kg/ha) came out at 0.0; in series [3] (Rate 0.0620 kg/ha), 0.0; in series [3] (Rate 0.1250 kg/ha), 2.0; in series [3] (Rate 0.2500 kg/ha), 5.0.
Turning to `COC(=O)COCc1nsc2ccc(-n3c(=O)cc(C(F)(F)F)n(C)c3=O)cc12` [Example 292, Acetic acid, {{5-[3,6-dihydro-3-methyl-2,6-dioxo-4-(trifluoromethyl)-1(2H)-pyrimidinyl]-1,2-benzisothiazol-3-yl}methoxy}-, methyl ester], the “CYPIR herbicidal effect rating” value with Cyperus iria (Rate 0.0320 kg/ha), in the series with Cyperus iria (Rate 0.0620 kg/ha), in the series with Cyperus iria (Rate 0.1250 kg/ha) and with Cyperus iria (Rate 0.2500 kg/ha) was 9.0 throughout. Also, the “SAGPY herbicidal effect rating” value in the series on Sagittaria pygmaea, L. (Rate 0.0320 kg/ha) was 0.0; in the series with Sagittaria pygmaea, L. (Rate 0.0620 kg/ha) it was 0.0; with Sagittaria pygmaea, L. (Rate 0.1250 kg/ha), 0.0; in the series with Sagittaria pygmaea, L. (Rate 0.2500 kg/ha) it was 5.0. Moreover, the “MOOVA herbicidal effect rating” value in series [1] (Rate 0.0320 kg/ha), in series [1] (Rate 0.0620 kg/ha), in series [1] (Rate 0.1250 kg/ha) and in series [1] (Rate 0.2500 kg/ha) was 9.0 throughout. The “ORYSAT herbicidal effect rating” value in series [2] (Rate 0.0320 kg/ha), in series [2] (Rate 0.0620 kg/ha), in series [2] (Rate 0.1250 kg/ha) and in series [2] (Rate 0.2500 kg/ha) was 0.0 throughout. Further, the “ECHORC herbicidal effect rating” value in series [3] (Rate 0.0320 kg/ha), in series [3] (Rate 0.0620 kg/ha), in series [3] (Rate 0.1250 kg/ha) and in series [3] (Rate 0.2500 kg/ha) was 0.0 in each case.
On to `Cn1c(C(F)(F)F)cc(=O)n(-c2cc3c(C(=O)NS(=O)(=O)Cc4ccccc4)nsc3cc2F)c1=O` [Example 482, 1,2-Benzisothiazole-3-carboxamide, N-(benzylsulfonyl)-5-[3,6-dihydro-3-methyl-2,6-dioxo-4-(trifluoromethyl)-1(2H)-pyrimidinyl]-6-fluoro-], for which the CYPIR herbicidal rating in the series on Cyperus iria (0.0320 kg/ha) came out at 0.0; in the series on Cyperus iria (0.0620 kg/ha), 0.0; with Cyperus iria (0.1250 kg/ha), 0.0; in the series on Cyperus iria (0.2500 kg/ha), 6.0. Besides, the SAGPY herbicidal rating in the series with Sagittaria pygmaea, L. (0.0320 kg/ha) was 3.0; with Sagittaria pygmaea, L. (0.0620 kg/ha), 4.0; in the series with Sagittaria pygmaea, L. (0.1250 kg/ha), 5.0; in the series on Sagittaria pygmaea, L. (0.2500 kg/ha), 7.0. In addition, the MOOVA herbicidal rating is 4.0 in series [1] (0.0320 kg/ha), 5.0 in series [1] (0.0620 kg/ha), 6.0 in series [1] (0.1250 kg/ha) and 7.0 in series [1] (0.2500 kg/ha). The “ORYSAT herbicidal rating (rice tolerance)” value in series [2] (0.0320 kg/ha) is recorded as 0.0; in series [2] (0.0620 kg/ha), 2.0; in series [2] (0.1250 kg/ha) it was 6.0; in series [2] (0.2500 kg/ha), 7.0. For the same compound, the ECHORC herbicidal rating in series [3] (0.0320 kg/ha) was 4.0; in series [3] (0.0620 kg/ha), 7.0; in series [3] (0.1250 kg/ha), 9.0; in series [3] (0.2500 kg/ha), 9.0.
